Experimental data from ChEMBL document CHEMBL2150949, “Dibenzocycloheptanoids from the leaves of Cinnamomum subavenium” (J Nat Prod, 2012).

Assay: Inhibition of Bacillus stearothermophilus alpha-glucosidase type 4
Set-up: species or system Geobacillus stearothermophilus

| Compound | IC50 [µM] |
| --- | --- |
| C[C@@H]1O[C@@H](OC[C@H]2O[C@@H](Oc3c(-c4ccc(O)cc4)oc4cc(O)cc(O)c4c3=O)[C@H](O)[C@@H](O)[C@@H]2O)[C@H](O)[C@H](O)[C@H]1O [NICOTIFLOROSIDE] | 110 |
| C[C@H]1O[C@H](O[C@H]2[C@H](O)[C@@H](O)[C@@H](O[C@H]3[C@H](O)[C@@H](O)C(O)O[C@@H]3CO)O[C@@H]2CO)[C@H](O)[C@@H](O)[C@@H]1N[C@H]1C=C(CO)[C@@H](O)[C@H](O)[C@H]1O (some centres undefined) [ACARBOSE] | 0.034 |
| COc1cc2c(cc1O[C@@H]1O[C@H](CO)[C@@H](O)[C@H](O)[C@H]1O)-c1ccccc1CC=C2CO [SUBAVENOSIDE D] | 50.7 |
| COc1cc([C@@H]2Oc3c(OC)cc(CCCO)cc3[C@@H]2CO[C@@H]2OC[C@@H](O)[C@H](O)[C@H]2O)ccc1O | 77.1 |
| O=C1C[C@@H](c2ccc(O)cc2)Oc2cc(O)cc(O[C@@H]3O[C@H](CO)[C@@H](O)[C@H](O)[C@H]3O)c21 | 28.3 |
| COCC1=CCc2cc(OC)ccc2-c2cc(O[C@@H]3O[C@H](CO)[C@@H](O)[C@H](O)[C@H]3O)c(OC)cc21 [SUBAVENOSIDE E] | 19 |
| OCCc1ccc(O)c(O)c1 [HYDROXYTYROSOL] | 109 |
| O=C1C[C@H](c2ccc(O)cc2)Oc2cc(O)cc(O[C@@H]3O[C@H](CO)[C@@H](O)[C@H](O)[C@H]3O)c21 | 39.8 |
| O=C(CCc1ccc(O)cc1)c1c(O)cc(O)cc1O[C@@H]1O[C@H](CO)[C@@H](O)[C@H](O)[C@H]1O [PHLORIZIN] | 60.5 |
| CCCC(=O)c1c(O)cc(O)cc1O[C@@H]1O[C@H](CO)[C@@H](O)[C@H](O)[C@H]1O | > 150 |
| COCC1=CCc2cc(OC)ccc2-c2cc(O)c(OC)cc21 | 118 |
| CC/C=C/CCO[C@@H]1O[C@H](CO)[C@@H](O)[C@H](O)[C@H]1O | > 150 |
| C=CCc1ccc(O[C@@H]2O[C@H](CO[C@@H]3OC[C@](O)(CO)[C@H]3O)[C@@H](O)[C@H](O)[C@H]2O)cc1 | > 150 |
| COc1cc2c(cc1O)-c1ccccc1CC=C2CO[C@@H]1O[C@H](CO)[C@@H](O)[C@H](O)[C@H]1O [SUBAVENOSIDE A] | 142 |
